Source: PubChem BioAssay (NCI)
“And” between values parts separate entries of the source, which are not always exact repeats. Identical values can stand only once.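 Cells were grown in 96-well plates and exposed to each compound for 48 hours at five concentrations; endpoints were interpolated linearly between bracketing concentrations, or set to the highest concentration if not reached. GI50 is the concentration that inhibits growth by half. The concentration for full growth arrest is given as TGI.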 Where a SMILES comes first, the peptide text is derived from it. The star is where a group is joined. Cbz = O=C(OCc1ccccc1)*

How the values were obtained:
Test in all cases: inhibition of tumour cell growth, NCI panel, 48 h
A549 NSCLC = system: A549 NSCLC
HOP-62 NSCLC = system: HOP-62 NSCLC
HS 578T breast = system: HS 578T breast
NCI/ADR-RES ovarian = system: NCI/ADR-RES ovarian
RXF 393 renal = system: RXF 393 renal
SF-295 CNS = system: SF-295 CNS
SF-539 CNS = system: SF-539 CNS
SK-MEL-5 melanoma = system: SK-MEL-5 melanoma
U251 CNS = system: U251 CNS
BT-549 breast = system: BT-549 breast

| SMILES | TGI (A549 NSCLC) | TGI (HOP-62 NSCLC) | TGI (HS 578T breast) | TGI (NCI/ADR-RES ovarian) | TGI (RXF 393 renal) [µM] | TGI (SF-295 CNS) | TGI (SF-539 CNS) [µM] | TGI (SK-MEL-5 melanoma) [µM] | TGI (U251 CNS) [µM] | TGI (BT-549 breast) [µM] | GI50 (HOP-62 NSCLC) [µM] | GI50 (HS 578T breast) [µM] | GI50 (NCI/ADR-RES ovarian) [µM] | GI50 (SF-295 CNS) [µM] |
| --- | --- | --- | --- | --- | --- | --- | --- | --- | --- | --- | --- | --- | --- | --- |
| N[C@H](Cc1ccc2oc3cc(=O)c4ccccc4c-3nc2c1)C(=O)O | > 100 µM | > 100 µM | > 100 µM | > 100 µM | > 100 | > 100 µM | > 100 | 41.1 | > 100 |  |  |  |  |  |
| OC(C/C=N/N=C/CC(O)(C(F)(F)Cl)C(F)(F)Cl)(C(F)(F)Cl)C(F)(F)Cl | > 10 µM | > 10 µM | > 10 µM | > 10 µM | > 10 | > 10 µM | > 10 | > 10 | > 10 |  |  |  |  |  |
| CCOC(=O)C(NC(=O)c1ccccc1)(N1CCN(c2cc3c(cc2F)c(=O)c(C(=O)O)cn3C2CC2)CC1)C(F)(F)F (stereo not drawn) | > 100 µM | > 100 µM | 66.3 µM |  | 36.5 | 87.9 µM | 30.9 | 29.4 | > 100 | 50.9 |  |  |  |  |
| C=CC1(CC[C@]2(c3ccc(OC)c(OC)c3)C=[N+]([O-])O[C@H](O[C@@H]3CCCC[C@H]3C(C)(C)c3ccccc3)C2)OCC(C)(C)CO1 | > 54.8 µM | 36.5 µM |  | 31 µM | > 48.4 | > 51.2 µM | 31.2 | 28.3 | > 50.5 | 98.6 |  |  |  |  |
| CCOC(=O)c1ccc(-c2ccc(Cl)cc2)[nH]1 | > 10 µM |  | > 10 µM | > 10 µM |  | > 10 µM | > 10 | > 10 | > 10 | > 10 |  |  |  |  |
| COc1cccc(CC(=O)N2CCN(CCCc3ccccc3)CC2)c1 | > 100 µM | > 100 µM | > 100 µM | 94.3 µM |  | > 100 µM | > 100 | 77.1 | > 100 | > 100 |  |  |  |  |
| C=C1CCCCCCCCC/C=C/1SCCCSC | > 100 µM | > 100 µM | > 100 µM | > 100 µM | > 100 | > 100 µM | > 100 | > 100 | > 100 |  |  |  |  |  |
| CC(=O)O[C@]12CCCCCC1C1(O)C(O)CCCCC12 (stereo partly drawn) | > 100 µM | > 100 µM |  |  | > 100 | > 100 µM |  | > 100 | > 100 |  |  |  |  |  |
| COC(=O)N[C@H](C(=O)NC(OCc1ccccc1)C1COC(C)(C)O1)C(C)O[Si](C)(C)C(C)(C)C (stereo partly drawn) | > 100 µM | > 100 µM | > 100 µM | > 100 µM | > 100 |  |  | 65.8 | > 100 |  |  |  |  |  |
| c1ccc2c(c1)OCCOCCOc1ccccc1OCCO2 | > 100 µM | > 100 µM |  |  | > 100 | > 100 µM | > 100 | > 100 | > 100 |  |  |  |  |  |
| CCCCCCc1cc2cc(C(=O)Nc3ccc(F)cc3)c(=N)oc2cc1O | 14.9 µM | 12.2 µM |  | 8.94 µM |  | > 100 µM | 4.82 | 3.28 | 8.64 | 7.32 |  |  |  |  |
| NC1(CCNC(=O)c2ccccc2)CCN(C(=O)c2ccccc2)CC1 | > 100 µM |  | > 100 µM | > 100 µM | > 100 | > 100 µM | > 100 | > 100 | > 100 | > 100 |  |  |  |  |
| CCCC(=O)[O-].CCCC(=O)[O-].NCCN.NCCN.[Co+3].[O-][Cl+3]([O-])([O-])[O-] | > 100 µM | > 100 µM |  |  |  | > 100 µM | > 100 | > 100 | > 100 |  |  |  |  |  |
| O=c1cc(NNc2cccc(Cl)c2)[nH]c(=O)[nH]1 | > 100 µM |  | > 100 µM | > 100 µM | > 100 |  | > 100 | > 100 | > 100 | > 100 |  |  |  |  |
| CCOC(=O)CCC(NC(=O)OCc1ccccc1)C(=O)NC(CCC(=O)OCC)C(=O)OCC (stereo not drawn) (Cbz-Glu(OEt)-Glu(OEt)-OEt; configuration not given here) | > 100 µM | > 100 µM | > 100 µM | > 100 µM | > 100 | > 100 µM | > 100 | > 100 | > 100 |  |  |  |  |  |
| COc1ccc(N2C(=O)C(=O)N(c3ccc(N=Nc4ccccc4)cc3)C2=S)cc1 | 41.2 µM | 34.6 µM | > 100 µM | 35.9 µM | 32.4 | 35.4 µM | 34.2 | 30.4 | 32.6 |  |  |  |  |  |
| CC(=O)c1ccc2c(c1)C(=O)c1sc(C(C)=O)cc1C2=O | 9.41 µM and 7.41 µM | 8.16 µM and 7.25 µM | 50 µM and 7.03 µM | 2.56 µM and 1.93 µM | 4.7 | 1.84 µM and 3 µM | 1.86 | 1.89 | 50 |  | 2.35 | 2.21 | 0.326 | 1.56 |
| COc1cccc(-c2nc(-c3cnccn3)n(C/C=C/c3ccccc3)n2)c1 | > 10 µM |  | > 10 µM | > 10 µM |  | > 10 µM | > 10 |  | > 10 | > 10 |  |  |  |  |
| CCOc1cc(NC(C)=O)ccc1C(=O)NNS(=O)(=O)c1ccc(NC(C)=O)cc1 | > 100 µM | > 100 µM | > 100 µM | > 100 µM | > 100 | > 100 µM | > 100 | 69.3 |  | > 100 |  |  |  |  |
| O=C(Cn1c2ccc(Br)cc2c2nc3ccccc3nc21)NNC(=S)NC1CCCCC1 | 22.4 µM | 30.6 µM | 52.9 µM | 34.5 µM | 23.4 | 25.7 µM |  | 28 | 28.3 | 42.8 |  |  |  |  |
| CCC(=O)OCN(C)c1nc(N(C)COC(=O)CC)nc(N(C)COC(=O)CC)n1 |  | > 100 µM | > 100 µM | > 100 µM | 25.5 | > 100 µM |  | 52.5 | > 100 | > 100 |  |  |  |  |
| C/C=C\C(CC(=O)NCC(=O)c1c[nH]c2ccccc12)CC(=O)OC (stereo not drawn) | > 100 µM | > 100 µM | > 100 µM | > 100 µM | > 100 | > 100 µM |  | > 100 | > 100 | > 100 |  |  |  |  |
| C[n+]1c2ccccc2c(NC(CCCN=C(N)N)C(=O)O)c2ccccc21 (stereo not drawn) | > 100 µM | > 100 µM |  |  | > 100 | > 100 µM | > 100 | > 100 | > 100 |  |  |  |  |  |
